Data set [1] has as its system M67 (Stat1/Stat3) luciferase reporter. Put plainly: M67 (Stat1/Stat3) luciferase reporter in HepG2 cells. The data set is classed as cell-based, human. The settings on record: 16 hours; for effect of co-applied inhibitor/antagonist on EPSI-induced M67 reporter activation: EPSI 0.05 mg/mL + inhibitor (pravastatin 10 μM; SC144; NF 449); for Stat3 (M67) reporter activity with three PPAR antagonists: GW 6471 + T0070907 + GSK3787 applied together with EPSI 0.05 mg/mL.
Method: Luciferase reporters used in the study: • M67 luciferase reporter.
The use of Stat1 inhibitor is required to distinguish the effects of Stat1 and Stat3.
HepG2 cells were electroporated with 10 μg of purified plasmid DNA and 0.1 μg of pRL-CMV Renilla luciferase control reporter vector (Promega, Madison, WI, USA) using the Neon Transfection System (Thermo Fisher Scientific, Waltham, MA, USA) and the following regimens: three 20 ms 1230 V pulses.
Luciferase activity was measured in Luminometer 20/20n (TurnerBioSystems, Sunnwale, USA) using Dual-Luciferase Reporter Assay System (Promega, Madison, USA) following the manufacturer's protocol.
DY 268 (Tocris Cat. No. 5656) • PPAR-alpha: GW 6471 (Tocris, Cat. No. 4618) • PPAR-gamma: T0070907 (Selleck Chemicals, Catalog No. S2871) • PPAR-delta: GSK3787 (Selleck Chemicals, Catalog No. S8025) • LEPR.
HepG2 cells were electroporated with 10 μg of purified plasmid DNA of M67 reporter and 0.1 μg of pRL-CMV Renilla luciferase control reporter vector (Promega, Madison, WI, USA) using the Neon Transfection System (Thermo Fisher Scientific, Waltham, MA, USA) and the following regimens: three 20 ms 1230 V pulses.
Detection of luciferase signals was performed 16 hours after the compounds' application. Luciferase activity was measured in Luminometer 20/20n (TurnerBioSystems, Sunnwale, USA) using Dual-Luciferase Reporter Assay System (Promega, Madison, USA) following the manufacturer's protocol.

Data set [2] relates to primary mouse fibroblasts. Description: Cell confluence of fibroblasts (cytotoxic effect). The note with it: 2.5 mg/ml (highest dose), 24 hours. It is filed as cell-based. On the procedure: The study was carried out in primary mouse fibroblasts. Isolation of fibroblasts was carried out with techniques described earlier (See Example 1). Fibroblasts were incubated with […] (SEQ ID NO: 1) peptide at different concentrations (0.005 mg/ml; 0.05 mg/ml; 0.5 mg/ml; 2.5 mg/ml) for 24 hours. Each treatment group was represented in two biological replicates.

Data set [3] has as its system HepG2 cells. Description: HepG2 cell death on incubation with antagonist. The settings on record: co-incubation with EPSI 0.05 mg/mL in M67 reporter experiment. The data set is classed as cell-based, human. On the procedure: • HepG2 human hepatocyte carcinoma cell line (HB-8065, ATCC, USA). • HepG2 cells were cultured in a complete DMEM medium containing 15% FBS.
Transfected HepG2 cells were co-incubated with EPSI peptide (0.05 mg/mL) and antagonists of the selected receptors.

The subject of data set [4] is IL-6. Put plainly: IL-6 mRNA expression in LPS-induced primary mouse fibroblasts. The note with it: peptide 100 μM + LPS 0.5 μg/mL, 24 hours. The data set is classed as cell-based. As for the experimental part: (§1) The study was carried out in primary mouse fibroblasts. Isolation of fibroblasts was carried out with techniques described earlier (See Example 1). Fibroblasts were cultured for 3 days. The following stressors were applied separately: bacterial lipopolysaccharides (LPS), high glucose in the incubation medium, and serum-free incubation medium.
(§2) LPS is a major outer surface membrane component that induces an inflammatory response in cells.
(§3) Isolation of mRNA, synthesis of the first strand of cDNA, and RT-PCR were performed with techniques described earlier (See Example 1). Expression levels of IRS2, TNF-α, IL-6, and GSK3p (WNT-pathway) were analyzed.
(§4) The study was carried out in primary mouse fibroblasts. Isolation of fibroblasts was carried out with techniques described earlier (See Example 1). Incubation of fibroblasts with 100 μM individual peptides and 0.5 μg/mL LPS was carried out for 24 hours. Each treatment group was represented in two biological replicates.
(§5) Isolation of mRNA, synthesis of the first strand of cDNA, and RT-PCR were performed with techniques described earlier (See Example 1). Expression levels of RPL27, TNF-α, IL-6, and IRS2 genes were analyzed.

Data set [5] deals with IRS2 gene expression. Description: IRS2 and metabolic gene mRNA expression (real-time PCR) in primary mouse fibroblasts. It is filed as cell-based. The settings on record: 24 hours. On the procedure: The study was carried out in primary mouse fibroblasts. Fibroblasts were isolated from skin tissues of twenty C57BL/6 mice in accordance with the standard protocol (Seluanov (2010). Establishing primary adult fibroblast cultures from rodents. JoVE. 44). Fibroblasts were cultured in a complete DMEM/F12 medium containing 15% FBS for two days, after which they were incubated with individual peptides for 24 hours. The dose of each peptide was 0.5 mg/ml. The experiment was carried out in 2 biological replicates.
The isolation of total RNA from cells was performed using the “ExtractRNA” reagent (Evrogen, Russia) analog of Trizol, according to the manufacturer's protocol. The quality of the isolated total RNA was assessed by measuring the concentration of RNA and the ratio of optical absorption at wavelengths of 260 nm and 280 nm. […]
Real-time PCR was performed using commercially available kit qPCR mix-HS-SYBR+Low Rox (Evrogen, Russia) and 7500 real-time PCR System (Applied Biosystems). […] We analyzed expression levels of TSC1, TSC2, pS6K1, pAKT, IRS2, SREBP-1, Stat3 genes. […]
Isolation of mRNA, synthesis of the first strand of cDNA, and RT-PCR were performed with techniques described earlier (See Example 1). Expression levels of IRS2, TNF-α, IL-6, and GSK3p (WNT-pathway) were analyzed. […]
On the technique in general: Real-time PCR tracks product formation cycle by cycle.

Data set [6] relates to TNF-α. Put plainly: TNF-α mRNA expression in LPS-induced primary mouse fibroblasts. The data set is classed as cell-based. The settings on record: peptide 100 μM + LPS 0.5 μg/mL, 24 hours. On the procedure:
as §1, §2, §3, §4, §5

No end group written: not given here.

With `O=C(Nc1cc(C(=O)Nc2ccc(S(=O)(=O)O)cc2S(=O)(=O)O)cc(C(=O)Nc2ccc(S(=O)(=O)O)cc2S(=O)(=O)O)c1)Nc1cc(C(=O)Nc2ccc(S(=O)(=O)O)cc2S(=O)(=O)O)cc(C(=O)Nc2ccc(S(=O)(=O)O)cc2S(=O)(=O)O)c1` [NF 449], in data set [1], the “effect of co-applied inhibitor/antagonist on EPSI-induced M67 reporter activation” value is reported as “partially inversed”.

For `CCC(=O)NC[C@H](Cc1ccc(OCCc2nc(-c3ccccc3)oc2C)cc1)N/C(C)=C\C(=O)c1ccc(C(F)(F)F)cc1` [GW 6471], the “Stat3 (M67) reporter activity with three PPAR antagonists” value (from here on “Stat3 (M67) reporter activity”) in data set [1] is on record as “significant induction”.

As for DLSKEPSISRE, the “cytotoxic effect (confluence of the cells)” value in data set [2] is reported as “absence of cytotoxic effect”.

`O=C(Nc1ccncc1)c1cc([N+](=O)[O-])ccc1Cl` [T0070907]: the “Stat3 (M67) reporter activity” value in data set [1] was “significant induction”.

In the case of `O=C(NNc1nc2cc(F)ccc2n2cccc12)c1cnccn1` [SC144], in data set [1], the “effect of co-applied inhibitor/antagonist on EPSI-induced M67 reporter activation” value is “partially inversed”.

Regarding `COc1cc(OC)cc(N(CCNC(C)C)c2ccc3ncc(-c4cnn(C)c4)nc3c2)c1` [Erdafitinib], in data set [3], the HepG2 cell death result is recorded as “total cell death”.

For the compound SKEPSIS (Synthetic polymer), the “LPS-evoked levels of IL-6 expression” value in data set [4] is recorded as “reducing LPS-evoked levels”. Further, the “IRS2 expression during LPS-induced inflammatory response” value in data set [5] (peptide 100 μM + LPS 0.5 μg/mL) is reported as “induced”. In addition, in data set [5] (pharmacophore screen, peptides 100 μM), the “IRS2 gene expression levels” value is “induce IRS2 gene expression levels”. Moreover, in data set [6], the “LPS-evoked levels of TNF-α expression” value is “reducing LPS-evoked levels”.

Consider `O=C(NCCS(=O)(=O)c1ccc(C(F)(F)F)cn1)c1ccc(Cl)cc1` [GSK3787], for which the “Stat3 (M67) reporter activity” value in data set [1] is on record as “significant induction”.
